Where “and” joins values, the source holds several entries; their conditions need not be identical. Equal entries are not always repeated. Where two headings read alike, the source gives them in different places.
Assays:
Assay type in all cases: biochemical
[1] = molecular target: T1, wild-type PIN8 proteoliposomes (Arabidopsis thaliana, UniProt Q9LFP6); test: SSM electrophysiology, peak width (FWHM) of current response at LPR10 and LPR50; conditions: for Rel. FWHM (% of LPR10): replicates
T1 construct: made in house
T1 sequence (Q9LFP6 1-367): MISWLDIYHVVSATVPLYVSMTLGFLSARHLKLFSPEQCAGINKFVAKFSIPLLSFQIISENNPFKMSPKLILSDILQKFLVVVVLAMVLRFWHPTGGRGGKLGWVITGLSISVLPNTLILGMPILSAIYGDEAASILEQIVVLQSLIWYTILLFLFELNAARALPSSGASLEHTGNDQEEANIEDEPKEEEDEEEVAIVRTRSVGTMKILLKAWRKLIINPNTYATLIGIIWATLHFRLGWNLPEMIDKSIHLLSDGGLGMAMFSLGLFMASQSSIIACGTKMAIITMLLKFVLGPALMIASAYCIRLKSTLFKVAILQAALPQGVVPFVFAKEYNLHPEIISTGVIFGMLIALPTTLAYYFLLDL
Procedure: (§1) SSM, using a SURFE2R N1 from Nanion Technologies, was conducted as described. In brief, soy polar lipid mix (38% phosphatidyl choline, 30% phosphatidyl ethanolamine, 18% phosphatidyl inositol, 7% phosphatidic acid and 7% other soy lipids) and 1-palmitoyl-2-oleoyl-sn-glycero-3-phosphocholin were purchased from Avanti. Liposomes were prepared in Ringer solution without Ca^2+ (115 mM NaCl, 2.5 mM KCl, 1 mM NaHCO3, 10 mM HEPES pH7.4, 1 mM MgCl2) and homogenized using a Lipsofast (Avestin) with a […]. Triton X-100 was added to the liposomes to a final concentration of 1% (v/v). Protein was added to liposomes to a calculated lipid-to-protein ratio (LPR) of 10 unless stated otherwise. The detergent was removed using 400 mg ml^−1 Bio Beads (BioRad) overnight at 4 °C in a rotary shaker. Proteoliposomes were frozen in liquid nitrogen and kept at −80 °C until use. Proteoliposomes were diluted 1:5 in Ringer solution without Ca^2+, sonicated five times and then applied to the sensors by centrifugation (30 min, 3,000 g, 4 °C). Non-activating buffer was Ringer solution without Ca^2+ as described unless specified otherwise, and activating buffer contained the substrate of interest. In most instances we used a single-solution exchange experiment. In this case proteoliposomes, immobilized on the supported membrane, are kept in non-activating buffer as specified. At the beginning of the experiment the non-activating buffer is replaced with fresh identical non-activating buffer, and after 1 s, activating buffer (same buffer containing substrate) is added. After another second, the buffer is replaced with non-activating buffer again. Current response is recorded throughout the entire 3 s. For competition or inhibition, the respective compound was present in non-activating and activating solutions. Each experiment was performed on at least two individual sensors. On each sensor each measurement consists of three technical replicates where the mean is calculated. KD values were determined as described previously. Briefly, the binding current induced by 100 µM NPA was recorded in the presence of different concentrations of the substrate under investigation ranging between 0 µM and 1,000 µM present in the activating solution and the non-activating solution (Extended Data Fig. 5b). […] The maximum peak current was then plotted as a function of the concentration of the substrate under investigation and plotted against the degree of inhibition and fitted with a one-site binding model using GraphPad Prism V10.4.1 The half maximal concentration corresponds to the KD of the substrate under investigation.

PIN8 N117A = molecular target: T2, PIN8 N117A (Arabidopsis thaliana, UniProt Q9LFP6, N117A); test: SSM electrophysiology peak current, PIN8 N117A proteoliposomes; conditions: Substrate IAA, replicates
T2 construct: made in house
Procedure: as §1
(§2) The protocol for expression and purification of AtPIN8 protein (Uniprot: Q9LFP6) in lauryl maltose neopentyl glycol was described previously. All point mutants were generated using Q5 Site-Directed mutagenesis kit (New England Biolabs). The C-flat Holey Carbon grids (CF-1.2/1.3, Cu-300 mesh) were glow-discharged for 45 s at 15 mA in a GloQube Plus (Quorum). […] After 1 h of incubation on ice, the sample was centrifuged at 16,000 g for 15 min before blotting to remove precipitation. A drop of 4 µl of each sample was applied to the glow-discharged grids, blotted with a Vitrobot Mark IV (ThermoFisher Scientific) using the following settings (temperature 4 °C, 100% humidity, blot time of 4 s, blot force −1) and vitrified in liquid ethane.

PIN8 S55A/S146A = molecular target: T3, PIN8 S55A/S146A (Arabidopsis thaliana, UniProt Q9LFP6, S146A/S55A); conditions: Michaelis–Menten fit
T3 construct: made in house
Procedure: as §1, §2

PIN8 I51Y = molecular target: T4, PIN8 I51Y (Arabidopsis thaliana, UniProt Q9LFP6, I51Y); conditions: Michaelis–Menten fit
T4 construct: made in house
Procedure: as §1, §2

PIN8 S55A = molecular target: T5, PIN8 S55A (Arabidopsis thaliana, UniProt Q9LFP6, S55A); conditions: for Peak current: S55A, individual sensors
T5 construct: made in house
Procedure: as §1, §2

PIN8 S146A = molecular target: T6, PIN8 S146A (Arabidopsis thaliana, UniProt Q9LFP6, S146A); conditions: for Peak current: individual sensors
T6 construct: made in house
Procedure: as §1, §2

PIN8 N223A = molecular target: T7, PIN8 N223A (Arabidopsis thaliana, UniProt Q9LFP6, N223A); conditions: PIN8 N223A, Michaelis–Menten fit
T7 construct: made in house
Procedure: as §1, §2

PIN8 Y150A = molecular target: T8, PIN8 Y150A (Arabidopsis thaliana, UniProt Q9LFP6, Y150A); conditions: for Peak current: Y150A, individual sensors
T8 construct: made in house
Procedure: as §1, §2

PIN8 S266A = molecular target: T9, PIN8 S266A (Arabidopsis thaliana, UniProt Q9LFP6, S266A); conditions: for Peak current: S266A, individual sensors
T9 construct: made in house
Procedure: as §1, §2

PIN8 Y150F = molecular target: T10, PIN8 Y150F (Arabidopsis thaliana, UniProt Q9LFP6, Y150F)
T10 construct: made in house
Procedure: as §1, §2

[2] = read-out: EC50 of peak current response

T9 sequence (Q9LFP6 whole entry S266A): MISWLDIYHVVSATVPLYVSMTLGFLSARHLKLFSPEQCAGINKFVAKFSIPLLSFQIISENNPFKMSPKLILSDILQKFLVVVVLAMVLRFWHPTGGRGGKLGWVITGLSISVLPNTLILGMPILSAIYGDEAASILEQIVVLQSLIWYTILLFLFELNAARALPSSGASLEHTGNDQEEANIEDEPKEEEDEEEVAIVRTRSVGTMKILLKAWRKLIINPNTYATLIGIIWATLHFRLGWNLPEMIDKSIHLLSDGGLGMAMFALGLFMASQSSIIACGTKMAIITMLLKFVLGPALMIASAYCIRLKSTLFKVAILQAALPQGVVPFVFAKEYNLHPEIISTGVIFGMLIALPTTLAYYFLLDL
T2 sequence (Q9LFP6 whole entry N117A): as the sequence (Q9LFP6 whole entry S266A) above, with N117A, A266S counted along it
T6 sequence (Q9LFP6 whole entry S146A): as the sequence (Q9LFP6 whole entry S266A) above, with S146A, A266S counted along it
T10 sequence (Q9LFP6 whole entry Y150F): as the sequence (Q9LFP6 whole entry S266A) above, with Y150F, A266S counted along it
T8 sequence (Q9LFP6 whole entry Y150A): as the sequence (Q9LFP6 whole entry S266A) above, with Y150A, A266S counted along it
T5 sequence (Q9LFP6 whole entry S55A): as the sequence (Q9LFP6 whole entry S266A) above, with S55A, A266S counted along it
T7 sequence (Q9LFP6 whole entry N223A): as the sequence (Q9LFP6 whole entry S266A) above, with N223A, A266S counted along it
T4 sequence (Q9LFP6 whole entry I51Y): as the sequence (Q9LFP6 whole entry S266A) above, with I51Y, A266S counted along it
T3 sequence (Q9LFP6 whole entry S55A/S146A): as the sequence (Q9LFP6 whole entry S266A) above, with S55A, S146A, A266S counted along it

## O=C(O)Cc1c[nH]c2ccccc12 [IAA, indole-3-acetic acid]
[1]; LPR10
  Rel. FWHM (% of LPR10): 1.043 % of LPR10 and 0.9783 % of LPR10 (2×)
[1]; LPR10 versus LPR50
  peak width of SSM-based current response as a function of lipid-to-protein ratio (LPR): vary with lipid-to-protein ratio (LPR)
[1]; LPR50
  Rel. FWHM (% of LPR10): 2.022 % of LPR10 (2×) and 1.957 % of LPR10
PIN8 N117A; 100µM
  Relative Peak Current of WT (%): 3.5397% and 5.375% and 9.48% and 13.4511%
PIN8 N117A; 2mM
  Relative Peak Current of WT (%): 11.8985% and 14.7068% and 17.3968% and 15.4928%
PIN8 S55A/S146A
  Imax: 7 ± 2 nA
PIN8 S55A/S146A; [2]
  EC50: 341 ± 128 µM
PIN8 I51Y
  Imax: 2 ± 0.2 nA
PIN8 I51Y; [2]
  EC50: 547 ± 171 µM
PIN8 S55A; PIN8 S55A, Michaelis–Menten fit
  Imax: 6 ± 1 nA
PIN8 S55A; PIN8 S55A, Michaelis–Menten fit, read-out: EC50 of peak current response
  EC50: 213 ± 58 µM
PIN8 S55A; 5 µM substrate
  Peak current: 0.3417 nA and 0.3232 nA and 0.2318 nA and 0.3509 nA
PIN8 S55A; 20 µM substrate
  Peak current: 1.04 nA and 0.8246 nA and 0.4664 nA and 0.4596 nA
PIN8 S55A; 50 µM substrate
  Peak current: 1.937 nA and 1.54 nA and 0.9207 nA and 0.8323 nA
PIN8 S55A; 100 µM substrate
  Peak current: 2.888 nA and 2.325 nA and 1.514 nA and 1.385 nA
PIN8 S55A; 500 µM substrate
  Peak current: 5.317 nA and 4.4508 nA and 3.048 nA and 3.044 nA
PIN8 S55A; 1000 µM substrate
  Peak current: 6.258 nA and 5.302 nA and 3.739 nA and 3.804 nA
PIN8 S55A; 2000 µM substrate
  Peak current: 7.104 nA and 6.138 nA and 4.476 nA and 4.5392 nA
PIN8 S146A; PIN8 S146A, Michaelis–Menten fit
  Imax: 8 ± 2 nA
PIN8 S146A; PIN8 S146A, Michaelis–Menten fit, read-out: EC50 of peak current response
  EC50: 498 ± 191 µM
PIN8 S146A; S146A, 5 µM substrate
  Peak current: 0.4304 nA and 0.01967 nA and 0.2252 nA
PIN8 S146A; S146A, 20 µM substrate
  Peak current: 0.857 nA and 0.324 nA and 0.6461 nA
PIN8 S146A; S146A, 50 µM substrate
  Peak current: 1.458 nA and 0.6503 nA and 1.2348 nA
PIN8 S146A; S146A, 100 µM substrate
  Peak current: 2.021 nA and 0.7074 nA and 1.578 nA
PIN8 S146A; S146A, 500 µM substrate
  Peak current: 4.698 nA and 2.244 nA and 4.077 nA
PIN8 S146A; S146A, 1000 µM substrate
  Peak current: 6.329 nA and 3.684 nA and 6.024 nA
PIN8 S146A; S146A, 2000 µM substrate
  Peak current: 7.444 nA and 4.338 nA and 6.988 nA
PIN8 S146A; S146A, direction (higher or lower affinity) shown by colour only
  fold-change difference to the respective EC50 of wildtype PIN8: ~ 2 fold
PIN8 N223A
  Imax: 2 ± 0.8 nA
PIN8 N223A; No transport = model could not be fit, read-out: EC50 of peak current response
  EC50: 444 ± 205 µM
PIN8 Y150A; PIN8 Y150A, Michaelis–Menten fit
  Imax: 4 ± 0.3 nA
PIN8 Y150A; PIN8 Y150A, Michaelis–Menten fit, read-out: EC50 of peak current response
  EC50: 1210 ± 298 µM
PIN8 Y150A; 5 µM substrate
  Peak current: 0.07393 nA and 0.1605 nA and 0.184 nA
PIN8 Y150A; 20 µM substrate
  Peak current: 0.162 nA and 0.2178 nA and 0.2518 nA
PIN8 Y150A; 50 µM substrate
  Peak current: 0.2702 nA and 0.3405 nA and 0.3285 nA
PIN8 Y150A; 100 µM substrate
  Peak current: 0.09437 nA and 0.3629 nA and 0.1017 nA
PIN8 Y150A; 500 µM substrate
  Peak current: 0.8668 nA and 1.165 nA and 0.6916 nA
PIN8 Y150A; 1000 µM substrate
  Peak current: 1.921 nA and 2.062 nA and 1.677 nA
PIN8 Y150A; 2000 µM substrate
  Peak current: 2.244 nA and 2.472 nA and 1.95 nA
PIN8 S266A; PIN8 S266A, Michaelis–Menten fit
  Imax: 4 ± 0.6 nA
PIN8 S266A; PIN8 S266A, Michaelis–Menten fit, read-out: EC50 of peak current response
  EC50: 578 ± 183 µM
PIN8 S266A; 5 µM substrate
  Peak current: 0.2201 nA and 0.07526 nA and 0.1062 nA
PIN8 S266A; 20 µM substrate
  Peak current: 0.3015 nA and 0.4448 nA and 0.2134 nA
PIN8 S266A; 50 µM substrate
  Peak current: 0.4871 nA and 0.8571 nA and 0.3384 nA
PIN8 Y150F; PIN8 Y150F, Michaelis–Menten fit
  Imax: 6 ± 2 nA
PIN8 Y150F; PIN8 Y150F, Michaelis–Menten fit, read-out: EC50 of peak current response
  EC50: 452 ± 32 µM
PIN8 Y150F; Y150F, direction shown by colour only
  fold-change difference to the respective EC50 of wildtype PIN8: ~ 2 fold

From PMC12095047, “Transport of phenoxyacetic acid herbicides by PIN-FORMED auxin transporters” (Nature Plants, 2025)
